From patent publication US20240409609A1, “REVERSIBLE LYSINE COVALENT MODIFIERS OF EGFR AND USES THEREOF” (Terremoto Biosciences, Inc., priority 2021, published 2024)

Target: EGFR WT (Homo sapiens (Human), UniProt P00533)
Experiment: EGFR biochemical assay (AssayQuant chelation-enhanced fluorescence)
Conditions: 30 min preincubation, reaction time 360 min

Sequence of EGFR WT (P00533 668-1210): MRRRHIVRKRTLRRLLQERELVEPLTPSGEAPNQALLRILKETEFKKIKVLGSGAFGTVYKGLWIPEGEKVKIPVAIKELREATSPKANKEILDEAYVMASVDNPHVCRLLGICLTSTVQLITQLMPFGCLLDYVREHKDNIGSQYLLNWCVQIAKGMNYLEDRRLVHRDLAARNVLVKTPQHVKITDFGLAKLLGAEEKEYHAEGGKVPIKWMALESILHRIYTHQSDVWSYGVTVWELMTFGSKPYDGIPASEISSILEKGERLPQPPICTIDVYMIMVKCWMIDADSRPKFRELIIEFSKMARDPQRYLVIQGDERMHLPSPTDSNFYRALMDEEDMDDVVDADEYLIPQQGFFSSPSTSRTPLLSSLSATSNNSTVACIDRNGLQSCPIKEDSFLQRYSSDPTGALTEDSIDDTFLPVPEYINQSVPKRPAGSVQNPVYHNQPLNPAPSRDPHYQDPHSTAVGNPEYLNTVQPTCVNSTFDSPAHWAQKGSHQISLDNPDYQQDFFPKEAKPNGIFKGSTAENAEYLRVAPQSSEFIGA

| IC50 | Compound |
| --- | --- |
| 98.4 nM | COc1cc(N2CCC(N3CCN(C)CC3)CC2)ccc1Nc1ncc(C#Cc2ccc(O)c(C=O)c2)c(Nc2ccccc2)n1 [Compound 17] |
| > 1000 nM | CC(C)c1ccc(N2CC(CS(C)(=O)=O)C2)c2cnc(Nc3ccnc(N(C)Cc4cccc(O)c4C=O)n3)cc12 [Compound 43] |
| > 1000 nM | CC(C)c1ccc(N2CC(CS(C)(=O)=O)C2)c2cnc(Nc3ccnc(-c4cccc(C=O)c4O)n3)cc12 [Compound 50] |
| 211 nM | COc1cc(N2CCC(N3CCN(C)CC3)CC2)ccc1Nc1ncc(-c2ccc(O)c(C=O)c2)c(-c2ccccc2)n1 [Compound 22] |
| 9.08 nM | COc1cc(N2CCC(N3CCN(C)CC3)CC2)ccc1Nc1ncc(C#Cc2cccc(O)c2C=O)c(Nc2ccccc2)n1 [Compound 18] |
| > 1000 nM | COc1cc(N2CCC(N3CCN(C)CC3)CC2)ccc1Nc1ncc(Cl)c(Oc2ccccc2-c2cccc(O)c2C=O)n1 [Compound 19] |
| 508 nM | CN1CCN(Cc2ccc3[nH]/c(=N\C(=O)c4ccnc(N(C)Cc5cccc(O)c5C=O)c4)n(CC(C)(C)O)c3c2)CC1 [Compound 96] |
| 271 nM | COc1cc(N2CCC(N3CCN(C)CC3)CC2)ccc1Nc1ncc(-c2ccc(O)c(C=O)c2)c(Oc2ccccc2)n1 [Compound 21] |
| 10.8 nM | COc1cc(N2CCC(N3CCN(C)CC3)CC2)ccc1Nc1ncc(-c2ccc(C=O)c(O)c2)c(Nc2ccccc2P(C)(C)=O)n1 [Compound 24] |
| 76.5 nM | COc1cc(N2CCC(N3CCN(C)CC3)CC2)ccc1Nc1ncc(Cl)c(Nc2ccc(NCc3ccc(C=O)c(O)c3)cc2)n1 [Compound 33] |
| 255 nM | COc1cc(N(C)CCN(C)C)c(NC(C)=O)cc1Nc1nccc(-c2cn(Cc3ccc(O)c(C=O)c3)c3ccccc23)n1 [Compound 30] |
| > 1000 nM | COc1cc(N2CCC(N3CCN(C)CC3)CC2)ccc1Nc1ncc(-c2ccc(O)c(C=O)c2)c(Nc2ccccc2P(C)(C)=O)n1 [Compound 27] |
| 278 nM | COc1cc(N2CCC(N3CCN(C)CC3)CC2)ccc1Nc1ncc(Cl)c(Nc2ccccc2-c2c(OC)ccc(C=O)c2O)n1 [Compound 34] |
| 526 nM | COc1cc(N(C)CCN(C)C)ccc1Nc1ncc(Cl)c(-c2cn(Cc3cccc(O)c3C=O)c3ccccc23)n1 [Compound 32] |
| > 1000 nM | CC(C)c1ccc(N2CC(CS(C)(=O)=O)C2)c2cnc(Nc3ccnc(-c4cccc(-c5cccc(O)c5C=O)c4)n3)cc12 [Compound 46] |
| 36.4 nM | COc1cc(N2CCC(N3CCN(C)CC3)CC2)ccc1Nc1ncc(C#Cc2cccc(C=O)c2O)c(Nc2ccccc2)n1 [Compound 16] |
| > 1000 nM | CC(C)c1ccc(N2CC(CS(C)(=O)=O)C2)c2cnc(Nc3ccnc(-c4ccc(O)c(C=O)c4)n3)cc12 [Compound 47] |
| 872 nM | COc1cc(N2CCC(N3CCN(C)CC3)CC2)ccc1Nc1ncc(Cl)c(Nc2cccc(-c3cccc(O)c3C=O)c2)n1 [Compound 26] |
| 22.2 nM | CC(C)c1ccc(N2CC(CS(C)(=O)=O)C2)c2cnc(Nc3ccnc(C#Cc4cccc(O)c4C=O)n3)cc12 [Compound 41] |
| > 1000 nM | CC(C)(O)Cn1/c(=N/C(=O)c2ccnc(C#Cc3cccc(C=O)c3O)c2)[nH]c2ccccc21 [Compound 137] |
| 87.5 nM | COc1cc(N2CCC(N3CCN(C)CC3)CC2)ccc1Nc1ncc(Cl)c(Nc2cccc(-c3cccc(C=O)c3O)c2)n1 [Compound 25] |
| > 1000 nM | COc1cc(N(C)CCN(C)C)ccc1Nc1ncc(Cl)c(-c2cn(Cc3cccc(C=O)c3O)c3ccccc23)n1 [Compound 31] |
